Earlier results as cited in US20180256601A1, “URSODEOXYCHOLIC ACID AND BRAIN DISORDERS” (priority 2015, published 2018).
“Also recorded” adds a separate entry of the source.

What was measured:
[1] = system: cell model of ALS; conditions: cell model of ALS (Vaz et al, 2015)
[2] = system: ALS patients; conditions: 1 g twice daily; 17 ALS patients
[3] = system: prion disease; conditions: Cortez et al, 2015
[4] = system: cellular model of HD; conditions: coincubation with 3-NP
[5] = worldwide postmarketing and clinical experience
[6] = oral; 450 mg UDCA, or complex containing 426 mg UDCA
[7] = post approval use
[8] = system: PBC patients; conditions: sixty PBC patients
[9] = in divided doses (Parry et al, 2010)
[10] = not given; remark: listed apart in the source
[11] = in vivo

Q: Which “mitochondrial dysfunction, caspase-9 activation, matrix metalloproteinase activation, nitrogen oxide (NO) generation” value [1] does the source give for `C[C@H](CCC(=O)NCC(=O)O)[C@H]1CC[C@H]2[C@@H]3[C@@H](O)C[C@@H]4C[C@H](O)CC[C@]4(C)[C@H]3CC[C@]12C` [GUDCA, glycoursodeoxycholic acid] here?
A: decrease

Q: Which results are given for `C[C@H](CCC(=O)NCCS(=O)(=O)O)[C@H]1CC[C@H]2[C@@H]3[C@@H](O)C[C@@H]4C[C@H](O)CC[C@]4(C)[C@H]3CC[C@]12C` [TUDCA, tauroursodeoxycholic acid]?
A: Amyotrophic Lateral Sclerosis Functional Rating Scale Revised [2]: significant improvements; therapeutic effects in prion disease [3]: variety of therapeutic effects; mitochondrial cytochrome c release and mitochondrial membrane alterations [4]: prevented; reduction in apoptosis [4]: ~80%

Q: Which “frequency of common adverse reactions: abdominal discomfort, abdominal pain, alopecia, diarrhea, nausea, pruritus, rash” value [5] does the source give for `C[C@H](CCC(=O)O)[C@H]1CC[C@H]2[C@@H]3[C@@H](O)C[C@@H]4C[C@H](O)CC[C@]4(C)[C@H]3CC[C@]12C` [UDCA, Ursodeoxycholic Acid] here?
A: ≥ 1%

Q: And the Cmax [6]?
A: 6100 ng/mL

Q: And the “t1/2(abs)” value [6]?
A: 0.9 h

Q: What about the tmax [6] of the same molecule?
A: 1.38 h

Q: And the “Adverse Reactions: Musculoskeletal and connective tissue disorders” value [7]?
A: Myalgia

Q: What about the “Adverse Reactions: Nervous system disorders” value [7] of the same molecule?
A: dizziness, headache

Q: And the “Adverse Reactions: Respiratory, thoracic and mediastinal disorders” value [7]?
A: Cough

Q: What about the “Adverse Reactions: Gastrointestinal disorders” value ([7]; listed as ursodiol) of the same molecule?
A: abdominal discomfort,; also recorded: abdominal pain,; also recorded: constipation, diarrhea,; also recorded: dyspepsia, nausea,; also recorded: vomiting

Q: And the “Adverse Reactions: General disorders and administration site conditions” value ([7]; listed as ursodiol)?
A: malaise, peripheral; also recorded: edema, pyrexia

Q: And the “Adverse Reactions: Immune System Disorders” value ([7]; listed as ursodiol)?
A: Drug hypersensitivity; also recorded: edema, urticaria,; also recorded: laryngeal edema

Q: And the “Adverse Reactions: Skin and subcutaneous tissue disorder” value ([7]; listed as ursodiol)?
A: alopecia, pruritus, and rash

Q: What about the “correlation between serum concentrations 1 hour after dosing and cerebrospinal fluid concentrations 2 hours after dosing” value (18 ALS patients (Parry et al, 2010)) of the same molecule?
A: strong statistically significant correlation

Q: What about the “time of serum level peak” value (after oral administration) of the same molecule?
A: 30 to 50 min

Q: And the blood-brain barrier crossing (in vivo)?
A: crosses the blood-brain barrier in a dose-dependent manner

Q: What about the “abdominal pain and asthenia” value [8] of the same molecule?
A: 1 patient

Q: What about the anorexia [8] of the same molecule?
A: 1 patient

Q: And the dyspepsia [8]?
A: 2 patients

Q: And the esophagitis [8]?
A: 1 patient

Q: And the nausea [8]?
A: 3 patients

Q: What about the “patients who reported adverse reactions” value ([8]; seven patients, nine adverse reactions) of the same molecule?
A: 11.6%

Q: And the “dose well tolerated without significant neurotoxic effects” value [9]?
A: up to 50 mg/kg/day

Q: And the elimination half-life ([10]; adults)?
A: 72 to 140 h

Q: And the “bile UDCA levels following discontinuation of therapy, as share of average steady state concentrations” value ([10]; in vivo)?
A: 5 to 10%

Q: And the “time to steady state concentrations” value ([10]; on average, from starting therapy)?
A: ≤ 3 weeks

Q: And the “fraction of oral dose excreted via the urine” value ([10]; oral)?
A: 1%

Q: What about the “fraction of exogenous UDCA absorbed” value ([10]; oral delivery, passive diffusion by the proximal jejunum and ileum) of the same molecule?
A: ~90%

Q: And the “percentage of UDCA in the bile pool after administration of exogenous UDCA” value [11]?
A: 55 to 60%
